Like-named read-outs stand apart in the source and are kept apart here.
Columns and labels:
[1] = tested on: SMN2 minigene (full length SMN2 minigene mRNA containing SMN2 exon 7); test: SMN2 minigene mRNA splicing RT-qPCR assay in cultured cells; format: cell-based, human; conditions: Homo sapiens, HEK293-H, read-out: EC1.5x for production of full length SMN2 mRNA
Method in brief: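 Read-out: full-length (exon 7-included) SMN2 minigene mRNA by multiplex RT-qPCR with GAPDH, efficiency-corrected (1+E)^−Ct, GAPDH-normalized and divided by vehicle. Stably transfected HEK293H cells, 24 h compound exposure, duplicates per concentration. Value is EC1.5x, reported as star ranges.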

[2] = tested on: Smn protein; test: Smn protein assay in cultured cells (SMN HTRF); format: cell-based, human; conditions: 48 hours; for maximum fold (Fold) increase of Smn protein: SMA patient fibroblast cells, 7-point concentration data, fold increase relative to vehicle control (SMN HTRF); for EC1.5x (concentration giving 1.5-fold Smn protein increase): SMA Type 1 patient fibroblast cells (GM03813), 7-point concentration curve, SMN HTRF, concentration producing 1.5 times Smn protein vs DMSO vehicle control, read-out: EC1.5x for Smn protein expression
Method in brief: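 Lysates in RIPA with protease inhibitors are incubated overnight at room temperature with HTRF anti-SMN antibodies. EC1.5x is derived from fold increase in ΔF over vehicle.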

[3] = HEK293H cells stably transfected with SMN2-A minigene, 24 hours, 7-point concentration curve, 1.5-fold relative to vehicle-treated cells

SMILES | melting point | EC (1.5-fold) [1, 3] | maximum fold (Fold) increase of Smn protein [2] | EC1.5x (concentration giving 1.5-fold Smn protein increase) [2] | EC (1.5-fold) ([1]; 24 h)
C[C@@H]1CN(c2ccc3cc(-c4cn5ccc(C(F)(F)F)cc5n4)c(=O)oc3c2)C[C@H](C)N1C [Compound 168, 3-[7-(trifluoromethyl)imidazo[1,2-a]pyridin-2-yl]-7-[(3R,5S)-3,4,5-trimethylpiperazin-1-yl]-2H-chromen-2-one] | 267 to 275 °C | 1 to 3 µM | * (maximum fold increase of ≤1.2) | – | –
O=c1oc2cc(N3CCNCC3)ccc2cc1-c1ccn[nH]1 [Cpd 29, 7-(piperazin-1-yl)-3-(1H-pyrazol-5-yl)-2H-chromen-2-one] | 224 to 228 °C | – | ** (fold increase between >1.2 and ≤1.35) | – | 3 to 30 µM
Cc1c[nH]nc1-c1cc2ccc(N3CCNCC3)cc2oc1=O [Cpd 80, 3-(4-methyl-1H-pyrazol-3-yl)-7-(piperazin-1-yl)-2H-chromen-2-one] | 175 to 200 °C (dec.) | – | ** (fold increase between >1.2 and ≤1.35) | – | 3 to 30 µM
Cc1cn2cc(-c3cc4ccc(N5CCN(C)CC5)cc4oc3=O)nc2s1 [Compound 97, 3-(2-methylimidazo[2,1-b][1,3]thiazol-6-yl)-7-(4-methylpiperazin-1-yl)-2H-chromen-2-one] | > 300 °C | 1 to 3 µM | *** (fold increase between >1.35 and ≤1.5) | 3000 to 10000 nM | –
CN1CCN(c2ccc3cc(-c4cn5ccccc5n4)c(=O)oc3c2)CC1 [Compound 72, 3-(imidazo[1,2-a]pyridin-2-yl)-7-(4-methylpiperazin-1-yl)-2H-chromen-2-one] | 265 to 268 °C | 0.3 to 1 µM | *** (fold increase between >1.35 and ≤1.5) | 300 to 1000 nM | –
CCN1CCN(c2ccc3cc(-c4cc5cc(C)ccn5n4)c(=O)oc3c2)CC1 [Compound 307, 7-(4-ethylpiperazin-1-yl)-3-(5-methylpyrazolo[1,5-a]pyridin-2-yl)-2H-chromen-2-one] | 257 to 259 °C | 0.3 to 1 µM | *** (fold increase between >1.35 and ≤1.5) | 3000 to 10000 nM | –
O=c1oc2cc(CN3CCC(O)C3)ccc2cc1-c1nc2c(Cl)cccc2s1 (stereo not shown) [Compound 272, 3-(4-chloro-1,3-benzothiazol-2-yl)-7-[(3-hydroxypyrrolidin-1-yl)methyl]-2H-chromen-2-one] | 188 to 192 °C | 1 to 3 µM | ** (fold increase between >1.2 and ≤1.35) | – | –
Cc1cn2cc(-c3cc4ccc(N5CCN[C@H](C)C5)cc4oc3=O)nc2s1 [Compound 231, 3-(2-methylimidazo[2,1-b][1,3]thiazol-6-yl)-7-[(3R)-3-methylpiperazin-1-yl]-2H-chromen-2-one] | 178 to 181 °C | 0.3 to 1 µM | ** (fold increase between >1.2 and ≤1.35) | 3000 to 10000 nM | –
CN1CCCN(c2ccc3cc(-c4cn5cc(Cl)cnc5n4)c(=O)oc3c2)CC1 [Compound 337, 3-(6-chloroimidazo[1,2-a]pyrimidin-2-yl)-7-(4-methyl-1,4-diazepan-1-yl)-2H-chromen-2-one] | 289 to 292 °C | 1 to 3 µM | * (maximum fold increase of ≤1.2) | – | –
Cc1ccn2cc(-c3cc4ccc(N5CCN[C@@H](C)C5)cc4oc3=O)nc2n1 [Compound 229, 3-(7-methylimidazo[1,2-a]pyrimidin-2-yl)-7-[(3S)-3-methylpiperazin-1-yl]-2H-chromen-2-one] | 298 to 301 °C | 0.1 to 0.3 µM | *** (fold increase between >1.35 and ≤1.5) | – | –

Now from value to molecule, other results behind:

melting point | SMILES | EC (1.5-fold) [1, 3] | maximum fold (Fold) increase of Smn protein [2] | EC1.5x (concentration giving 1.5-fold Smn protein increase) [2] | EC (1.5-fold) ([1]; 24 h)
155 to 157 °C | COc1cccc(-c2cc3ccc(N4CCN[C@@H](C)C4)cc3oc2=O)n1 [Compound 362, 3-(6-methoxypyridin-2-yl)-7-[(3S)-3-methylpiperazin-1-yl]-2H-chromen-2-one] | 0.3 to 1 µM | ** (fold increase between >1.2 and ≤1.35) | – | –
251 to 259 °C | Cc1cc([N+](=O)[O-])c2nc(-c3cc4ccc(N5CCN[C@@H](C)C5)cc4oc3=O)cn2c1 [Compound 703, 3-(6-methyl-8-nitroimidazo[1,2-a]pyridin-2-yl)-7-[(3S)-3-methylpiperazin-1-yl]-2H-chromen-2-one] | 1 to 3 µM | ** (fold increase between >1.2 and ≤1.35) | – | –
118 to 122 °C | Cc1cn2cc(-c3cc4ccc(N5CCC(N6CCOCC6)C5)cc4oc3=O)cc2c(C)n1 (stereo not shown) [Compound 757, 3-(1,3-dimethylpyrrolo[1,2-a]pyrazin-7-yl)-7-[3-(morpholin-4-yl)pyrrolidin-1-yl]-2H-chromen-2-one] | 0.3 to 1 µM | *** (fold increase between >1.35 and ≤1.5) | 1000 to 3000 nM | –
182 to 185 °C | CCN1CCN(c2ccc3cc(-c4cc5c(C)nc(C)cn5c4)c(=O)oc3c2)CC1 [Compound 674, 3-(1,3-dimethylpyrrolo[1,2-a]pyrazin-7-yl)-7-(4-ethylpiperazin-1-yl)-2H-chromen-2-one] | < 0.1 µM | ***** (fold increase >1.65) | < 300 nM | –
232 to 236 °C | C[C@@H]1CN(c2ccc3cc(-c4cn5cc(F)cnc5n4)c(=O)oc3c2)CCN1 [Compound 481, 3-(6-fluoroimidazo[1,2-a]pyrimidin-2-yl)-7-[(3R)-3-methylpiperazin-1-yl]-2H-chromen-2-one] | 1 to 3 µM | * (maximum fold increase of ≤1.2) | – | –
196 to 198 °C | Cc1cn2cc(-c3cc4ccc(N5CC[C@H](CN)C5)cc4oc3=O)nc2c(C)n1 [Compound 950, 7-[(3R)-3-(aminomethyl)pyrrolidin-1-yl]-3-(6,8-dimethylimidazo[1,2-a]pyrazin-2-yl)-2H-chromen-2-one] | 0.1 to 0.3 µM | *** (fold increase between >1.35 and ≤1.5) | 1000 to 3000 nM | –
258 to 262 °C | CCC1CN(c2ccc3cc(-c4cn5cc(C)nc(C)c5n4)c(=O)oc3c2)CCN1C (stereo not shown) [Compound 676, 3-(6,8-dimethylimidazo[1,2-a]pyrazin-2-yl)-7-(3-ethyl-4-methylpiperazin-1-yl)-2H-chromen-2-one] | < 0.1 µM | ***** (fold increase >1.65) | < 300 nM | –
261 to 271 °C | O=c1oc2cc(N3CCNCC3)ccc2cc1-c1cn2cc(C3CC3)cc(F)c2n1 [Compound 500, 3-(6-cyclopropyl-8-fluoroimidazo[1,2-a]pyridin-2-yl)-7-(piperazin-1-yl)-2H-chromen-2-one] | 0.3 to 1 µM | * (maximum fold increase of ≤1.2) | – | –
188 to 190 °C | Cc1cn2cc(-c3cc4ccc(N5CCCNCC5)cc4oc3=O)nc2c(C)n1 [Compound 518, 7-(1,4-diazepan-1-yl)-3-(6,8-dimethylimidazo[1,2-a]pyrazin-2-yl)-2H-chromen-2-one] | < 0.1 µM | ***** (fold increase >1.65) | < 300 nM | –
233 to 236 °C | Cc1nn2cc(-c3cc4ccc(N5CCN(C)CC5)cc4oc3=O)nc2s1 [Compound 442, 3-(2-methylimidazo[2,1-b][1,3,4]thiadiazol-6-yl)-7-(4-methylpiperazin-1-yl)-2H-chromen-2-one] | 3 to 30 µM | ** (fold increase between >1.2 and ≤1.35) | – | –
145 to 148 °C | CN(CCO)Cc1ccc2cc(-c3cn4ccsc4n3)c(=O)oc2c1 [Compound 345, 7-{[(2-hydroxyethyl)(methyl)amino]methyl}-3-(imidazo[2,1-b][1,3]thiazol-6-yl)-2H-chromen-2-one] | 1 to 3 µM | *** (fold increase between >1.35 and ≤1.5) | 3000 to 10000 nM | –
191 to 193 °C | Cc1cn2cc(-c3cc4ccc(CN5CCCCC5)cc4oc3=O)nc2c(C)n1 [Compound 847, 3-(6,8-dimethylimidazo[1,2-a]pyrazin-2-yl)-7-(piperidin-1-ylmethyl)-2H-chromen-2-one] | 1 to 3 µM | ** (fold increase between >1.2 and ≤1.35) | – | –
304 to 306 °C | CC(=O)O.Cc1cn2cc(-c3cc4ccc(N5CCN(C)[C@H](C)C5)cc4oc3=O)nc2c(O)n1 [Compound 760, 7-[(3R)-3,4-dimethylpiperazin-1-yl]-3-(8-hydroxy-6-methylimidazo[1,2-a]pyrazin-2-yl)-2H-chromen-2-one acetate] | 0.1 to 0.3 µM | *** (fold increase between >1.35 and ≤1.5) | – | –

Source: patent USRE47689E1, “Compounds for treating spinal muscular atrophy” (PTC Therapeutics, Inc., priority 2011, dated 2019)
